Among the data in ChEMBL document CHEMBL1201862, “PubChem BioAssay data set” (2004) are IC50, EC50 and CC50 values, retold here.

Active and inactive are the calls of the source.

Experiment [1] deals with T1, Caspase-3 (Homo sapiens, UniProt P42574).
T1 sequence (P42574 whole entry): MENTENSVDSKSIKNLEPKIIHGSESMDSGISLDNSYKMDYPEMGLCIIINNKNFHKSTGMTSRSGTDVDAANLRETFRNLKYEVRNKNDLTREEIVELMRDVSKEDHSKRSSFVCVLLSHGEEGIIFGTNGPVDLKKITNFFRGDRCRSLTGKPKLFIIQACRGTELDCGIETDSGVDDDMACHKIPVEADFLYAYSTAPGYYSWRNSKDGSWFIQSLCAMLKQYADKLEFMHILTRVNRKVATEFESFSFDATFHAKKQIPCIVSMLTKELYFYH
Briefly: SAR Analysis of small molecule inhibitors of Sentrin-specific proteases (SENPs) using a Caspase-3 Selectivity assay. [Related pubchem assays (depositor defined):AID2540, AID2599, AID434973, AID489001]. The class given is functional.

Experiment [2] addresses T2, Sentrin-specific protease 7 (Homo sapiens, UniProt Q9BQF6).
T2 sequence (Q9BQF6 whole entry): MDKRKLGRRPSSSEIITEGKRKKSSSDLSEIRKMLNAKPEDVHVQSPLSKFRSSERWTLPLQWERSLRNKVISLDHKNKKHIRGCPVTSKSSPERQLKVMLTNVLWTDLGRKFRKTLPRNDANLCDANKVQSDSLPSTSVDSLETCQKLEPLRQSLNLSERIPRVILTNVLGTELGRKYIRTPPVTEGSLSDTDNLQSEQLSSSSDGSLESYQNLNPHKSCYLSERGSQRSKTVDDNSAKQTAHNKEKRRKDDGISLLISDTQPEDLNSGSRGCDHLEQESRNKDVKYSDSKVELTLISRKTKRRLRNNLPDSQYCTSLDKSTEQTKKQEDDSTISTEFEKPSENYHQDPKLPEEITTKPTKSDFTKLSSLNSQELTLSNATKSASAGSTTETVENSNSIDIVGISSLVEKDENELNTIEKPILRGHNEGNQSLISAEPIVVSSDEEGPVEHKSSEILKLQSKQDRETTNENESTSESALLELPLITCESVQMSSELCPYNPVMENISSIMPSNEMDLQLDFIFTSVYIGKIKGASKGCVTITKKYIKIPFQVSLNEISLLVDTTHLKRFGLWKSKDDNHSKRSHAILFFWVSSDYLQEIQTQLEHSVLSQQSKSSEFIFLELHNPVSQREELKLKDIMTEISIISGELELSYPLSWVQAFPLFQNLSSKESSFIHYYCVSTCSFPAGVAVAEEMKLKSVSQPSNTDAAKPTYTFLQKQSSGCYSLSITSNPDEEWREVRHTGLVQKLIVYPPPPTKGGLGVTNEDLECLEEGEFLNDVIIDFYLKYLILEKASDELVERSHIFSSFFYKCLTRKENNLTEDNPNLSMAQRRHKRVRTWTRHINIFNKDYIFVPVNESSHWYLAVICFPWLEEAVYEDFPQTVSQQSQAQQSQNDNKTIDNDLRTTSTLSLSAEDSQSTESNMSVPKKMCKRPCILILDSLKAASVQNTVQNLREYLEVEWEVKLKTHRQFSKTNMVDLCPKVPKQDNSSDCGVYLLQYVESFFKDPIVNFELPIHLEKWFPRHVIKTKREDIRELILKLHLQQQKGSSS
The experiment is described as follows: SENP7 protease inhibitors, SAR follow-up, biochemical, luminescence (AID 504497). The class given is functional.

Experiment [3] has as its target T3, Sentrin-specific protease 6 (Homo sapiens, UniProt Q9GZR1).
T3 sequence (Q9GZR1 whole entry): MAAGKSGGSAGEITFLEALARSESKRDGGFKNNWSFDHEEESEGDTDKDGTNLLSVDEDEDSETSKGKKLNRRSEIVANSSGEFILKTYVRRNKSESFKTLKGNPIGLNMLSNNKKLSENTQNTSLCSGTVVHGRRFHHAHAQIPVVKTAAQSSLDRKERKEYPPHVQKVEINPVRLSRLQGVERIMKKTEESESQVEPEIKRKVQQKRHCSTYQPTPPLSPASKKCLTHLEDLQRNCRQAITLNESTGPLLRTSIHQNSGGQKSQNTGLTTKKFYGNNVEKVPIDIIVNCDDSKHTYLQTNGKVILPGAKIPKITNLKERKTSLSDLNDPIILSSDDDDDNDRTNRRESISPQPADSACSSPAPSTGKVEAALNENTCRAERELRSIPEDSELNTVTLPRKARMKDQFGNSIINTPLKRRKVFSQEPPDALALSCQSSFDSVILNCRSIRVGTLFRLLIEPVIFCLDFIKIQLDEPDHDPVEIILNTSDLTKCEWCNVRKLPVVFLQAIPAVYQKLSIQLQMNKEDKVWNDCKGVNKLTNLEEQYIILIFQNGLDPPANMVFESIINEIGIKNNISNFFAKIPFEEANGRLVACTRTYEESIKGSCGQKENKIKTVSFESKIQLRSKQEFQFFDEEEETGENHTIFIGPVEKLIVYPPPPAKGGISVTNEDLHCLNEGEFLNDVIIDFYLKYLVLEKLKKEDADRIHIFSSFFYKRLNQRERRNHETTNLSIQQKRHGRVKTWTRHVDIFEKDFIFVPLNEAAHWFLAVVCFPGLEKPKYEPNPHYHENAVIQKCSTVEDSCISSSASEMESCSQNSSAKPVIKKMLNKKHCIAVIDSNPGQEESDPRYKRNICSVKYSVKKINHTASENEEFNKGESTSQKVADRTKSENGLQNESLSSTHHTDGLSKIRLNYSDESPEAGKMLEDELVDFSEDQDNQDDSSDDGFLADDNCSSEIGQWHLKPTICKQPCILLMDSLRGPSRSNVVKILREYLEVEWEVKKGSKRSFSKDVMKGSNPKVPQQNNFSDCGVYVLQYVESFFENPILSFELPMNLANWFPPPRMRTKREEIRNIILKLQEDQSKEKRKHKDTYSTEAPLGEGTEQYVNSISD
The experiment is described as follows: SAR Analysis of small molecule inhibitors of Sentrin-specific protease 6 (SENP6) using a Luminescent assay. [Related pubchem assays (depositor defined):AID2582, AID2599]. Format: functional.

In experiment [4] the target is T4, Sentrin-specific protease 8 (Homo sapiens, UniProt Q96LD8).
T4 sequence (Q96LD8 whole entry): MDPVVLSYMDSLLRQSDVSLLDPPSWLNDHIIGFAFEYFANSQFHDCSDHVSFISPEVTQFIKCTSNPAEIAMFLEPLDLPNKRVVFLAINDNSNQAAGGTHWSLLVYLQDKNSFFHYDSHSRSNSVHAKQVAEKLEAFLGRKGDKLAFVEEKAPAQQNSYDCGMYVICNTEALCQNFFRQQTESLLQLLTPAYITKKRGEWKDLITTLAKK
The experiment is described as follows: SENP8 protease inhibitors, SAR follow-up, biochemical, luminescence (AID 504501). Format: functional.

For experiment [5], the target named is T5, Insulin-degrading enzyme (Homo sapiens, UniProt P14735).
T5 sequence (P14735 whole entry): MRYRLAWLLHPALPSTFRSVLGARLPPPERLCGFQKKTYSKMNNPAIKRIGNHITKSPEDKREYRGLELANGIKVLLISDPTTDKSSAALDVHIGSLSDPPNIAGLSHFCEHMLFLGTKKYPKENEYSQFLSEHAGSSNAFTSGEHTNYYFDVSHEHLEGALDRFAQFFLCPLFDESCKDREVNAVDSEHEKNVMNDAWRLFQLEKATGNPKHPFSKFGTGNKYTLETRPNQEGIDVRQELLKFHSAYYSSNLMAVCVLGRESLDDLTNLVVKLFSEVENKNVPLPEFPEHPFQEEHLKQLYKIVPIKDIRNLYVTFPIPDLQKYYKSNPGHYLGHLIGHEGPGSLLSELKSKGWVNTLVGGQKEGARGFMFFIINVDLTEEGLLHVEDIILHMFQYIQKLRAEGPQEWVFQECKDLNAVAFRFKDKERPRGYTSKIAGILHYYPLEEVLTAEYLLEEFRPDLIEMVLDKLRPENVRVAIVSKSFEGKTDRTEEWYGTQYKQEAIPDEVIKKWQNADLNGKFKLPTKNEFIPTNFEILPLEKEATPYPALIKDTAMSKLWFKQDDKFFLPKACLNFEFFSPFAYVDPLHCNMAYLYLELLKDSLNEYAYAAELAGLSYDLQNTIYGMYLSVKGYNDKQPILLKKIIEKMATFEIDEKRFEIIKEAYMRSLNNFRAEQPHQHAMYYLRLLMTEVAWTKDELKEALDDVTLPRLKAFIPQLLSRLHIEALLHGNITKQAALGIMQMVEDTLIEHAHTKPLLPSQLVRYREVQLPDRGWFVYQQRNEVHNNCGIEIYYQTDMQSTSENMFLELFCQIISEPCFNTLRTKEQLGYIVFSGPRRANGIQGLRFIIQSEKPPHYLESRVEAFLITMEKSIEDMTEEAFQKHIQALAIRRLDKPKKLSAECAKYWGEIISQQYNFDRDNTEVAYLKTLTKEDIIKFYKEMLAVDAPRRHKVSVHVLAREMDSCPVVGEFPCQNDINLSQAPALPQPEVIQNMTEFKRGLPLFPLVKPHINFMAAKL
The experiment is described as follows: activators of endogenous IDE in HEK cells, dose response, cell-based, fluorescence polarization (AID 588439). The class given is functional. On the technique in general: Fluorescence polarisation rises when a labelled molecule tumbles more slowly, as on binding a larger partner.

Experiment [6] addresses T5, Insulin-degrading enzyme. The experiment is described as follows: activators of recombinant IDE enzyme, dose response, counter-screen for IDE activator project, biochemical, fluorescence polarization (AID 588681). Background: The purpose of a counterscreen is to sort out artefacts and off-target activity.
Experiment [7] has as its system HEK293. The experiment is described as follows: optical interference in Abeta FP readout, dose response, artefact control for IDE activator project, biochemical, fluorescence polarization (AID 588442). The class given is functional, cell-based. The note with it: Homo sapiens.
The nature of experiment [8]: HEp-2 cell cytotoxicity, dose response, cytotoxicity control for RSV inhibitor project, HTS (AID 2410). The class given is functional. The settings on record: human respiratory syncytial virus.
Experiment [9] has as its system HEK293. Briefly: HEK cell cytotoxicity by LDH release, dose response, cytotoxicity control for IDE activator project, fluorescence, HEK cells (AID 588440).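 Note: cytotoxicity by LDH release measuring loss of membrane integrity.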 Format: functional, cell-based. The note with it: Homo sapiens. For orientation: LDH in the medium is a marker of cell lysis.

The IC50 is the concentration at which inhibition is half-maximal. Regarding `CC(C)OC(=O)c1c(-c2ccc(Br)cc2)csc1NC(=O)C1CCC1`, the IC50 is 1.98 µM (active) in experiment [1], 1.53 µM (active) in experiment [2], 1.22 µM (active) in [3] and 1.58 µM (active) in experiment [4].
For `O=[N+]([O-])c1cc(/C=N/Nc2cc(N3CCOCC3)nc(N3CCOCC3)n2)cc2c1OCO2`, in that order: > 99 µM (inactive), > 99 µM (inactive), > 99 µM (inactive) and > 99 µM (inactive).
For orientation: EC50 means the concentration that produces a half-maximal response. The term CC50 denotes the concentration giving 50% cytotoxicity. As to `Oc1ccc(C2Nc3cccc4cccc(c34)N2)cc1`, the EC50 was 11.1 µM (inactive) in experiment [5], 6.73 µM (active) in experiment [6] and 20.4 µM (inactive) in [7]. Besides, in experiment [8], the CC50 was 21.8 µM (active). Moreover, the IC50 in [9] is > 89.2 µM (inactive).
